In ChEMBL document CHEMBL4152222, “Structural insights into serotonin receptor ligands polypharmacology” (Eur J Med Chem, 2018):

Experiments:
Homo sapiens [1] = species on record: Homo sapiens; assay: Selectivity index, ratio of Ki for human 5-HT7B receptor to Ki for human 5-HT6 receptor
Homo sapiens [2] = species on record: Homo sapiens; assay: Selectivity index, ratio of Ki for human 5-HT1A receptor to Ki for human 5-HT7B receptor
[3] = biological target: 5-hydroxytryptamine receptor 7 (Homo sapiens, UniProt P34969); assay: Displacement of [3H]-5-CT from human 5-HT7b receptor expressed in HEK293 cell membranes after 1 hr by microbeta TopCount analysis
[4] = biological target: 5-hydroxytryptamine receptor 6 (Homo sapiens, UniProt P50406); assay: Displacement of [3H]-LSD from human 5-HT6 receptor expressed in HEK293 cell membranes after 1 hr by microbeta TopCount analysis
[5] = biological target: T1, 5-hydroxytryptamine receptor 1A (Homo sapiens, UniProt P08908); assay: Displacement of [3H]-8-OH-DPAT from human 5-HT1A receptor expressed in HEK293 cell membranes after 1 hr by microbeta TopCount analysis
T1 sequence (P08908 whole entry): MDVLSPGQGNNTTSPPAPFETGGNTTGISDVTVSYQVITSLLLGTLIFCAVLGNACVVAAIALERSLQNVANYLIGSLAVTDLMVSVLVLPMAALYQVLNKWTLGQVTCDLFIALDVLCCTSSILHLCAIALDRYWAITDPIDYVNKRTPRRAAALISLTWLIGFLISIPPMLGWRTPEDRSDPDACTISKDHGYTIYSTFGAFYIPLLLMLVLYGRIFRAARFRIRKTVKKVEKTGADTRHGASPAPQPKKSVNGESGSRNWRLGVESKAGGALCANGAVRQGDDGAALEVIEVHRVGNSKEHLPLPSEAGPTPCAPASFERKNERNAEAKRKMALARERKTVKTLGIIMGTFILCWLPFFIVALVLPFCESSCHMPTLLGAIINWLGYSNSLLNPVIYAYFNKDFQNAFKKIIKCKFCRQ

Homo sapiens [6] = species on record: Homo sapiens; assay: Selectivity index, ratio of Ki for human 5-HT1A receptor to Ki for human 5-HT6 receptor

Chain of 5-hydroxytryptamine receptor 7 (P34969 whole entry): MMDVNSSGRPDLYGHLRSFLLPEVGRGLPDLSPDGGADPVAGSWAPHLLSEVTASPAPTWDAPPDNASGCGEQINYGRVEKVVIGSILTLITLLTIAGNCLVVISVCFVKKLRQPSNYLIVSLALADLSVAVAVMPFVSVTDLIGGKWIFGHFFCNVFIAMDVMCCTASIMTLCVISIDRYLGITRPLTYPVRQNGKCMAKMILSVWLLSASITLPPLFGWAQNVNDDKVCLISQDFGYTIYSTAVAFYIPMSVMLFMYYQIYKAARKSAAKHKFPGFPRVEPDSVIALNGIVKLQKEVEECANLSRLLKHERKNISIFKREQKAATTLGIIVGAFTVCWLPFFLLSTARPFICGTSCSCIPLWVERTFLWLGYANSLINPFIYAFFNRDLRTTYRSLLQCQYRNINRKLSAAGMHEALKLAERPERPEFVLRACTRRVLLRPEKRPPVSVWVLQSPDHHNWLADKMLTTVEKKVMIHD
Chain of 5-hydroxytryptamine receptor 6 (P50406 whole entry): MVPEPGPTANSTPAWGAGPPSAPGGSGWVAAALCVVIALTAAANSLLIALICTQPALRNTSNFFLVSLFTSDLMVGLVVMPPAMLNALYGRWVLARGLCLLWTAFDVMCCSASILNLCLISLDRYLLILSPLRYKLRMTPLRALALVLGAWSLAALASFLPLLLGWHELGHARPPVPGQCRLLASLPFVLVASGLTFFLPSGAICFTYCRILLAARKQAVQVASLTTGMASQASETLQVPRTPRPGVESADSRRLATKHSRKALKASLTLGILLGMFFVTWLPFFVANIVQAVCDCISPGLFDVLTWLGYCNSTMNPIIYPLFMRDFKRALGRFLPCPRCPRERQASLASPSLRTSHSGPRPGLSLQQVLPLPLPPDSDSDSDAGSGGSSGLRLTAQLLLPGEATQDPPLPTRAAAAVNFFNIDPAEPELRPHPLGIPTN

Compound | Ratio Ki (Homo sapiens [1]) | Ratio Ki (Homo sapiens [2]) | Ki [3] [µM] | Ki [4] [µM] | Ki [5] [µM] | Ratio Ki (Homo sapiens [6])
COc1ccc(CNCCC(c2ccccc2)c2ccc3c(c2)OCO3)cc1 (configuration not stated) | 4 | 1 | 14.1 | 3.7 | 15.6 | 4
O[C@H](CCN1CCc2onc(-c3ccc(F)c(F)c3)c2C1)c1ccccc1 | 8 | 5 | 71.2 | 9 | 330 | 37
CCC1(C)CC(CCNCc2ccc(OC)c(OC)c2)(c2ccc(C)cc2)CCO1 (configuration not stated) | 11 | 1 | 37.2 | 3.4 | 36.8 | 11
CCC1(C)CC(CCNCc2ccccc2)(c2ccc(C)cc2)CCO1 (configuration not stated) | 2 | 4 | 10.1 | 5.6 | 41.8 | 8
CC(NCCC(Cc1ccccc1)c1ccco1)c1ccc(Cl)cc1 (configuration not stated) | 3 | 2 | 3.8 | 1.4 | 7.1 | 5
COc1ccc(CNCCC(c2ccco2)c2ccccc2OC)cc1 (configuration not stated) | 4 | 0.6 | 10.4 | 2.4 | 6.1 | 2
Cc1ccc(C(CCNC(C)c2ccc(Cl)cc2)c2ccco2)cc1 (configuration not stated) | 3 | 1 | 8.4 | 2.5 | 9.1 | 4
Cc1ccc(COc2ccc(Br)cc2CNC(C)c2ccccc2)cc1 (configuration not stated) | 0.7 | 54 | 3.7 | 5.1 | 196 | 38
O=C1N(Cc2ccccc2)C(c2ccccc2)=NC1(Nc1ccccn1)C(F)(F)F (configuration not stated) | 44 | 3 | 84.5 | 1.9 | 284 | 149
Cc1ccc(C(C)NCCC(c2ccc(F)cc2)c2ccco2)cc1 (configuration not stated) | 7 | 0.5 | 12.5 | 1.8 | 6.1 | 3
COc1cc(CNCCC2=CCCCC2)ccc1OCc1ccccc1 | 3 | 0.6 | 8 | 2.7 | 4.9 | 2
Cc1ccc(C(C)(C)CC(C)NCc2ccc(C(F)(F)F)cc2)o1 (configuration not stated) | 1 | 5 | 6.1 | 5.8 | 31.4 | 5
